Reference: patent EP4538262A1, “COCRYSTALS OF VORASIDENIB” (SANDOZ AG, priority 2023, dated 2025)

How the values were obtained:
[1] = in phosphate buffer pH 6.8 + 0.003% Tween 80, 10% methanol, 25 °C
[2] = Moisture sorption isotherm (DVS); assay type: physicochemical; settings: between 10 to 90 % RH, RH step of 5% RH
Method: The moisture sorption isotherms were recorded with a SPS-11 moisture sorption analyzer (MD Messtechnik, Ulm, Germany). […] The equilibrium condition for each step was set to a mass constancy of ±0.002 % over 40 min.

SMILES | time of transformation to vorasidenib dihydrate [1] | DVS water content [2]
CC(Nc1nc(NC(C)C(F)(F)F)nc(-c2cccc(Cl)n2)n1)C(F)(F)F.O=C(O)CC(=O)O (centres unmarked) [Vorasidenib malonic acid cocrystal] | ten | –
C[C@@H](Nc1nc(N[C@H](C)C(F)(F)F)nc(-c2cccc(Cl)n2)n1)C(F)(F)F.C[C@@H](Nc1nc(N[C@H](C)C(F)(F)F)nc(-c2cccc(Cl)n2)n1)C(F)(F)F.O.O=C(O)/C=C/C(=O)O [vorasidenib fumaric acid cocrystal] | – | not more than 2.0 % by weight
